# In patent EP3057951B1, “METHYLENE LINKED QUINOLINYL MODULATORS OF ROR-GAMMA-T” (Janssen Pharmaceutica NV, priority 2013, dated 2015):
# Structures can show the parent of a compound that is named as a salt.
# Biological target: T1, wild type human RORγt LBD (Homo sapiens, UniProt P51449)
# T1 construct: expressed in transfected cells; host or cells: HEK293T
# T1 sequence (P51449 258-518): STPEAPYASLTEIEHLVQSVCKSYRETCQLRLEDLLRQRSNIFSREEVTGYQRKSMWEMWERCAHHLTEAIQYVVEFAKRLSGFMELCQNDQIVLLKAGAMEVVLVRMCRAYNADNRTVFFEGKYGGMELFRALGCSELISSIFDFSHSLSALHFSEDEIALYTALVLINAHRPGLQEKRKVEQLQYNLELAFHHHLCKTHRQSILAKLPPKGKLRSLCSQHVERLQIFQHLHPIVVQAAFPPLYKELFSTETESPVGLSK
# Assay: RORγt (LBD) Reporter Assay (GAL4-luciferase, HEK293T cells)
# Type: cell-based
# Conditions: 6 µM compound concentration; HEK293T cells; 6 µM
row,SMILES,"RORγt (LBD) Reporter Assay, % inhibition @ 6 µM [%]"
1,"COc1nc2ccc(C(O)(c3oc(C)nc3C)c3cnnn3C)cc2c(Cl)c1Cc1ccc(C(F)(F)F)cc1 (single isomer, unassigned) [Example 156c, (4-chloro-2-methoxy-3-(4-(trifluoromethyl)benzyl)quinolin-6-yl)(2,4-dimethylozazol-5-yl)(1-methyl-1H-1,2,3-triazol-5-yl)methanol]",99

# Same assay, conditions: HEK293T cells
row,SMILES,IC50 [nM]
1,"CCN(CC)c1nc2ccc(C(O)(c3ccc(Cl)cc3)c3cncn3C)cc2c(C#N)c1Cc1ccc(-n2cccn2)cc1 (single isomer, unassigned) [Example 154b, 3-(4-(1H-pyrazol-1-yl)benzyl)-6-((4-chlorophenyl)(hydroxy)(1-methyl-1H-imidazol-5-yl)methyl)-2-(diethylamino)quinoline4-carbonitrile]",140
2,"Cn1cncc1C(O)(c1ccc(Cl)cc1)c1ccc2nc(Cl)c(Cc3ccc(C(F)(F)F)cc3)c(Cl)c2c1 (centres unmarked) [Example 155, (4-chlorophenyl)(2,4-dichloro-3-(4-(trifluoromethyl)benzyl)quinolin-6-yl)(1-methyl-1H-imidazol-5-yl)methanol•TFA]",160

# Same assay, conditions: HEK293T cells; value after the comma with ∼, > or < could not be included in the average
row,SMILES,IC50 [nM]
1,"COc1nc2ccc(C(O)(c3cnnn3C)c3cnc(C)n3C)cc2c(C#N)c1Cc1ccc(C(F)(F)F)nc1 (centres unmarked) [Example 44a, 6-((1,2-Dimethyl-1H-imidazol-5-yl)(hydroxy)(1-methyl-1H-1,2,3-triazol-5-yl)methyl)-2-methoxy-3-((6-(trifluoromethyl)pyridin-3-yl)methyl)quinoline-4-carbonitrile]",7.6

# Same assay, conditions: HEK-293T, read-out: RORγt (LBD) Reporter Assay, % inhibition @ 6 µM, 6 µM compound concentration
row,SMILES,inhibition at 6 µM [%]
1,"COc1nc2ccc(C(O)(c3ccc(C)nc3C)c3cnnn3C)cc2c(Cl)c1Cc1ccc(C(F)(F)F)nc1 (centres unmarked) [Example 40a, (4-Chloro-2-methoxy-3-((6-(trifluoromethyl)pyridin-3-yl)methyl)quinolin-6-yl)(2,6-dimethylpyridin-3-yl)(1-methyl-1H-1,2,3-triazol-5-yl)methanol]",98
2,"COc1nc2ccc(C(O)(c3cnnn3C)c3cnc(C)n3C)cc2c(C#N)c1Cc1ccc(C(F)(F)F)nc1 (centres unmarked) [Example 44a, 6-((1,2-Dimethyl-1H-imidazol-5-yl)(hydroxy)(1-methyl-1H-1,2,3-triazol-5-yl)methyl)-2-methoxy-3-((6-(trifluoromethyl)pyridin-3-yl)methyl)quinoline-4-carbonitrile]",97

# Same assay, conditions: HEK-293T, read-out: RORγt (LBD) Reporter Assay, % inhibition @ 6 µM, 6 µM compound concentration; HEK293T cells
row,SMILES,inhibition at 6 µM [%]
1,"COc1nc2ccc(C(O)(c3oc(C)nc3C)c3cnnn3C)cc2c(Cl)c1Cc1ccc(C(F)(F)F)cc1 (single isomer, unassigned) [Example 156b, (4-chloro-2-methoxy-3-(4-(trifluoromethyl)benzyl)quinolin-6-yl)(2,4-dimethylozazol-5-yl)(1-methyl-1H-1,2,3-triazol-5-yl)methanol]",98
2,"Cn1cncc1C(O)(c1ccc(Cl)cc1)c1ccc2nc(Cl)c(Cc3ccc(C(F)(F)F)cc3)c(Cl)c2c1 (centres unmarked) [Example 155, (4-chlorophenyl)(2,4-dichloro-3-(4-(trifluoromethyl)benzyl)quinolin-6-yl)(1-methyl-1H-imidazol-5-yl)methanol•TFA]",88

# Biological target: T2, wild type human RORγt ligand binding domain (RORyt LBD) (Homo sapiens, UniProt P51449)
# T2 construct: His-tag (N); TurboTEV protease cleavage site (ENLYFQG) (N); made in house; host or cells: E. coli (pHIS1, modified pET vector)
# T2 sequence (P51449 258-518): T1 sequence (P51449 258-518)
# Assay: RORγt ThermoFluor assay (thermal shift, binding affinity KD)
# Conditions: not given
row,SMILES,Kd [nM]
1,"COc1nc2ccc(C(O)(c3ccc(C(F)(F)F)nc3)c3cnnn3C)cc2c(Cl)c1Cc1ccc(C(F)(F)F)cc1 (racemic) [Example 75a, (4-Chloro-2-methoxy-3-(4-(trifluoromethyl)benzyl)quinolin-6-yl)(1-methyl-1H-1,2,3-triazol-5-yl)(6-(trifluoromethyl)pyridin-3-yl)methanol]",3.3
2,"COc1nc2ccc(C(O)(c3cnnn3C)C3CN(C)C3)cc2c(Cl)c1Cc1ccc(C(F)(F)F)cc1 (racemic) [Example 90a, (4-Chloro-2-methoxy-3-(4-(trifluoromethyl)benzyl)quinolin-6-yl)(1-methyl-1H-1,2,3-triazol-5-yl)(1-methylazetidin-3-yl)methanol]",5
3,"Cc1nc2ccc(C(O)(c3ccc(C(F)(F)F)nc3)c3cncn3C)cc2c(Cl)c1Cc1ccc(C(F)(F)F)cc1 (single isomer, unassigned) [Example 26b, (4-Chloro-2-methyl-3-(4-(trifluoromethyl)benzyl)quinolin-6-yl)(1-methyl-1H-imidazol-5-yl)(6-(trifluoromethyl)pyridin-3-yl)methanol]",15
4,"Cc1nc2ccc(C(O)(c3ccc(C(F)(F)F)nc3)c3cncn3C)cc2c(Cl)c1Cc1ccc(C(F)(F)F)cc1 (single isomer, unassigned) [Example 26c, (4-Chloro-2-methyl-3-(4-(trifluoromethyl)benzyl)quinolin-6-yl)(1-methyl-1H-imidazol-5-yl)(6-(trifluoromethyl)pyridin-3-yl)methanol]",0.77
5,"CC(=O)N1CCC(C(O)(c2ccccc2)c2ccc3nc(C)c(Cc4ccc(C(F)(F)F)cc4)c(Cl)c3c2)CC1 (single isomer, unassigned) [Example 27b, 1-(4-((4-Chloro-2-methyl-3-(4-(trifluoromethyl)benzyl)quinolin-6-yl)(hydroxy)(phenyl)methyl)piperidin-1-yl)ethanone]",0.63
6,"CC(=O)N1CCC(C(O)(c2ccccc2)c2ccc3nc(C)c(Cc4ccc(C(F)(F)F)cc4)c(Cl)c3c2)CC1 (single isomer, unassigned) [Example 27c, 1-(4-((4-Chloro-2-methyl-3-(4-(trifluoromethyl)benzyl)quinolin-6-yl)(hydroxy)(phenyl)methyl)piperidin-1-yl)ethanone]",14
7,"Cc1ccc(C(O)(c2ccc3nc(C)c(Cc4ccc(C(F)(F)F)cc4)c(Cl)c3c2)c2cnnn2C)c(C)n1 (single isomer, unassigned) [Example 28b, (4-Chloro-2-methyl-3-(4-(trifluoromethyl)benzyl)quinolin-6-yl)(2,6-dimethylpyridin-3-yl)(1-methyl-1H-1,2,3-triazol-5-yl)methanol]",160
8,"Cc1ccc(C(O)(c2ccc3nc(C)c(Cc4ccc(C(F)(F)F)cc4)c(Cl)c3c2)c2cnnn2C)c(C)n1 (single isomer, unassigned) [Example 28c, (4-Chloro-2-methyl-3-(4-(trifluoromethyl)benzyl)quinolin-6-yl)(2,6-dimethylpyridin-3-yl)(1-methyl-1H-1,2,3-triazol-5-yl)methanol]",0.12
9,"Cc1nc2ccc(C(O)(c3cnnn3C)c3cnc(C)n3C)cc2c(Cl)c1Cc1ccc(C(F)(F)F)cc1 (single isomer, unassigned) [Example 29b, (4-Chloro-2-methyl-3-(4-(trifluoromethyl)benzyl)quinolin-6-yl)(1,2-dimethyl-1H-imidazol-5-yl)(1-methyl-1H-1,2,3-triazol-5-yl)methanol]",0.04
10,"Cc1nc2ccc(C(O)(c3cnnn3C)c3cnc(C)n3C)cc2c(Cl)c1Cc1ccc(C(F)(F)F)cc1 (single isomer, unassigned) [Example 29c, (4-Chloro-2-methyl-3-(4-(trifluoromethyl)benzyl)quinolin-6-yl)(1,2-dimethyl-1H-imidazol-5-yl)(1-methyl-1H-1,2,3-triazol-5-yl)methanol]",0.15
11,"Cc1nc2ccc(C(O)(c3ccnc(C(F)(F)F)c3)c3cncn3C)cc2c(Cl)c1Cc1ccc(C(F)(F)F)cc1 (single isomer, unassigned) [Example 30b, (4-Chloro-2-methyl-3-(4-(trifluoromethyl)benzyl)quinolin-6-yl)(1-methyl-1H-imidazol-5-yl)(2-(trifluoromethyl)pyridin-4-yl)methanol]",300
12,"Cc1nc2ccc(C(O)(c3ccnc(C(F)(F)F)c3)c3cncn3C)cc2c(Cl)c1Cc1ccc(C(F)(F)F)cc1 (single isomer, unassigned) [Example 30c, (4-Chloro-2-methyl-3-(4-(trifluoromethyl)benzyl)quinolin-6-yl)(1-methyl-1H-imidazol-5-yl)(2-(trifluoromethyl)pyridin-4-yl)methanol]",0.092
13,"CC(=O)N1CC(C(O)(c2ccc3nc(C)c(Cc4ccc(C(F)(F)F)cc4)c(Cl)c3c2)c2cnnn2C)C1 (single isomer, unassigned) [Example 32b, 1-(3-((4-Chloro-2-methyl-3-(4-(trifluoromethyl)benzyl)quinolin-6-yl)(hydroxy)(1-methyl-1H-1,2,3-triazol-5-yl)methyl)azetidin-1-yl)ethanone]",0.86
14,"CC(=O)N1CC(C(O)(c2ccc3nc(C)c(Cc4ccc(C(F)(F)F)cc4)c(Cl)c3c2)c2cnnn2C)C1 (single isomer, unassigned) [Example 32c, 1-(3-((4-Chloro-2-methyl-3-(4-(trifluoromethyl)benzyl)quinolin-6-yl)(hydroxy)(1-methyl-1H-1,2,3-triazol-5-yl)methyl)azetidin-1-yl)ethanone]",1.3
15,"CCc1nc2ccc(C(O)(c3cnnn3C)C3CCOCC3)cc2c(Cl)c1Cc1ccc(C(F)(F)F)cc1 (single isomer, unassigned) [Example 33b, (4-Chloro-2-ethyl-3-(4-(trifluoromethyl)benzyl)quinolin-6-yl)(1-methyl-1H-1,2,3-triazol-5-yl)(tetrahydro-2H-pyran-4-yl)methanol]",0.08
16,"CCc1nc2ccc(C(O)(c3cnnn3C)C3CCOCC3)cc2c(Cl)c1Cc1ccc(C(F)(F)F)cc1 (single isomer, unassigned) [Example 33c, (4-Chloro-2-ethyl-3-(4-(trifluoromethyl)benzyl)quinolin-6-yl)(1-methyl-1H-1,2,3-triazol-5-yl)(tetrahydro-2H-pyran-4-yl)methanol]",0.84
17,"CCc1nc2ccc(C(O)(c3cnc(C)n3C)C3CCOCC3)cc2c(Cl)c1Cc1ccc(C(F)(F)F)cc1 (single isomer, unassigned) [Example 34b, (4-Chloro-2-ethyl-3-(4-(trifluoromethyl)benzyl)quinolin-6-yl)(1,2-dimethyl-1H-imidazol-5-yl)(tetrahydro-2H-pyran-4-yl)methanol]",0.03
18,"CCc1nc2ccc(C(O)(c3cnc(C)n3C)C3CCOCC3)cc2c(Cl)c1Cc1ccc(C(F)(F)F)cc1 (single isomer, unassigned) [Example 34c, (4-Chloro-2-ethyl-3-(4-(trifluoromethyl)benzyl)quinolin-6-yl)(1,2-dimethyl-1H-imidazol-5-yl)(tetrahydro-2H-pyran-4-yl)methanol]",6.8
